A word on the IC50: it is the concentration that gives 50% inhibition.

This assay concerns the target T1, PTPN9 (Homo sapiens, UniProt P43378).
T1 construct: made in house; host or cells: Escherichia coli Rosetta (DE3)
T1 sequence (P43378 277-581): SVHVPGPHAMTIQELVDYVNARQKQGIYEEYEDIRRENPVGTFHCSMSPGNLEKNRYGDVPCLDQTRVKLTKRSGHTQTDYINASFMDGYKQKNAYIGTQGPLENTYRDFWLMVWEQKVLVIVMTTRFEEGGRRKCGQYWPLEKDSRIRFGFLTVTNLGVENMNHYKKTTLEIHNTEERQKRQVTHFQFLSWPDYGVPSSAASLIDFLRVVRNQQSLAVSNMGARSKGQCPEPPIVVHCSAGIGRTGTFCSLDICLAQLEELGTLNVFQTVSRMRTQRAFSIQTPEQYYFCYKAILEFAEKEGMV
Nature of the assay: PTPN9 enzyme inhibition with DiFMUP substrate. Type of assay: biochemical. Particulars: DiFMUP 220 µM, PTPN9 0.15 nM; NA: no activity. The protocol:
The purification and kinetic analyses of PTPN9 and DUSP9 (Ser277–581) were performed following methods described in the literature, with slight modifications. PAGE analysis data and enzyme kinetic constants are presented in Figure S1 and Table S1, respectively. Enzyme activity in the presence or absence of the compounds was measured using DiFMUP, a representative PTP fluorogenic substrate. First, the inhibitory effects of compounds 1–3 were evaluated using 50 µM PTPN9 and 20 µM DUSP9. There was an increase in the inhibitory activity of compound 1 for both enzymes as the number of CH2 units increased from 9 to 14 (Figure 2A,B).
Next, the IC50 values of the compounds, which induce a 50% inhibition of DiFMUP hydrolytic enzyme activity, were determined (Table 1). The IC50 values were determined from the dose–response enzyme inhibition curves of each compound. The dose–response curves for compounds 1e and 1f against PTPN9 and DUSP9, respectively, are presented in Figure 2C,D. Dose–response curves were also obtained for the other compounds (Figures S2 and S3).
The methods employed for PTP overexpression and purification have been described in a previous study. In brief, human PTPN9 and DUSP9 were cloned into a pET28a vector (Merk Millipore, Darmstadt, Germany) containing a hexahistidine (His6) tag or a maltose-binding protein (MBP) tag in its N-terminus (see Supplementary Materials). Recombinant genes were separately transformed into Escherichia coli Rosetta (DE3) (Merk Millipore, Darmstadt, Germany), and the overexpression of each gene was induced via the addition of 0.1 mM IPTG (Ducherfa Biochemie, Haarlem, RV, USA). After 16 h of incubation at 18 °C, cell pellets were obtained via centrifugation (3570× g at 4 °C for 15 min), resuspended in lysis buffer (50 mM Tris, pH: 7.5, 500 mM NaCl, 5% glycerol, 0.025% 2-mercaptoethanol, and 1 mM phenyl-methylsulfonyl fluoride (PMSF)), and lysed by ultrasonication. Subsequently, cell lysates were centrifuged at 29,820× g for 30 min at 4 °C; then, the supernatant was collected and incubated with a cobalt affinity resin (TALON® Metal Affinity Resin, Takara Korea, Seoul, Korea). After 1 h of incubation at 4 °C, the desired proteins were eluted by adding the lysis buffer supplemented with 100 mM imidazole. Samples were stored at –80 °C until use.
The enzymatic activities of purified PTPN9 and DUSP9 were measured using 6,8-difluoro-4-methylumbelliferyl phosphate (DiFMUP), the most widely used fluorogenic PTP substrate in the literature. To determine KM values, PTPN9 (0.15 nM) and DUSP9 (200 nM) were added to a reaction buffer (20 mM Bis-tris, pH: 7.0, 150 mM NaCl, 2.5 mM dithiothreitol (DTT), and 0.01% Triton X-100) containing DiFMUP (800, 400, 200, 100, 50, 25, 12.5, or 6.25 μM) in a 96-well black plate. The final reaction volume was 100 µL. The fluorescence intensity was continuously monitored for 10 min (Ex/Em = 355/460 nm) on a Victor™ X4 multilabel plate reader (Perkin Elmer, Norwalk, CT, USA). KM values were obtained using Lineweaver–Burk plots analysis.
To evaluate the enzyme inhibitory effects of GA and its analogs, 10 µl of the enzyme stock solution (1.5 nM PTPN9 and 2 µM DUSP9) in the reaction buffer was added into the mixture of DiFMUP (to a final concentration of 220 µM and 90 µM for PTPN9 and DUSP9, respectively) and each compound (to a final concentration of 50 µM and 20 µM for PTPN9 and DUSP9, respectively) was added to the reaction buffer. Enzyme activity was measured as described above. Half-inhibitory concentration (IC50) values were determined under similar conditions, except for the concentrations of the inhibitors (200, 100, 50, 25, 12.5, 6.25, or 3.125 µM for PTPN9 and 25, 12.5, 6.25, 3.125, 1.563, 0.782, or 0.391 µM for DUSP9). The dose-dependent curve was fitted to the four-parameter logistic regression equation, (y = a + (b – a)/(1 + (x/c)^d), to obtain IC50 values using the Kaleida Graph software Ver. 4.1.3. (Synergy Software Inc, PA, USA).

Regarding `CCCCCCCCCCCCCOc1cccc(O)c1C(=O)O` [Compound 1e], the IC50 came to 18.31 ± 0.17 µM.

In the case of `CCCCCCCCCCCCCCCOc1cccc(O)c1C(=O)O` [Compound 1f], the IC50 turned out to be 10.2 ± 0.52 µM.
